Measured values taken from paper PMC10799935, “Discovery of a peripheral 5HT2A antagonist as a clinical candidate for metabolic dysfunction-associated steatohepatitis” (Nature Communications, 2024).
“And” between values parts separate entries of the source, which are not always exact repeats. Equal values may be shown once.

How the values were obtained:
[1] = Hepatocyte stability test, mouse; format: in vitro ADME; settings: male, CD1, cryopreserved hepatocytes, pH 7.4, read-out: Hepatocyte stability (% remaining after 3 h)
Procedure: Hepatocyte incubations for the test compound (10 μM final concentration, n = 2 per each time point) were carried out in mouse, rat, dog, monkey and human cryopreserved hepatocytes, resuspended at a density of 0.5 million cells/ml of modified Krebs-Henseleit buffer (KHB). The information regarding the hepatocytes used in the experiment is as follows: liverPool® 10-donor mixed gender human (BioIVT, Cat.No. X008001, lot EAV), male cynomolgus monkey (BioIVT, Cat.No. M00305, lot COJ), male Beagle dog (BioIVT, Cat.No. M00205, lot USY), male Sprague Dawley rat (BioIVT, Cat.No. M00005, lot TQE) and male CD1 mouse (BioIVT, Cat.No.005052, lot LFF). In addition, the compound was also incubated with blank KHB. The final concentration of solvent (DMSO) was 0.1% of the final volume. The incubations were performed for 3 hours at 37°C and pH 7.4. Reactions were terminated at 0 and 180 minutes by the addition of 3 volumes of stop solution (acetonitrile/methanol (2:1, v/v) containing internal standard–diclofenac at 100 ng/ml). Samples (compound spiked buffer and compound spiked hepatocytes, as well as blank samples, i.e. hepatocytes with the same DMSO%) were then centrifuged and aliquots were transferred to 96-deep micronic tubes and frozen at -80 °C until LC-MS/MS analysis. […]

[2] = system: HFD-fed C57BL/6J mice; assay: DIO mice: tissue weight; format: in vivo, mouse; settings: for Tissue Weight Kidney / Tissue Weight Liver / Tissue Weight Pancreas / Tissue Weight eWAT / Tissue Weight iWAT: PO; for Predicted (LS) mean diff. (Vehicle vs. 11c), Tissue Weight: Dunnett's multiple comparisons test; for Significant? (Vehicle vs. 11c), Tissue Weight: Dunnett's test, alpha 0.05; for Predicted (LS) mean 2 (11c group), Tissue Weight: test details, in g (unit assumed)
Text: For in vivo efficacy in DIO models and CDAHFD models, the experimental protocol for this study was approved by the Institutional Animal Care and Use Committee (IACUC) at the Korea Advanced Institute of Science and Technology (No. KA2023-027-v2) or Kyungpook National University (No. KNU-20200134). All relevant ethical guidelines were followed. C57BL/6 J male mice (11 weeks old) were purchased from the Charles River Japan and were housed in a specific pathogen-free barrier facility under a regular light-dark cycle (12-hour light/12-hour dark) at 24°C with 40–60% humidity. Food (standard chow diet, Envigo, 2018S) and water were provided ad libitum. […] Mice were euthanized by the method of cervical dislocation. The measurement of lean and fat mass in live mice was performed by a body composition analyzer (LF50 BCA-analyzer, Bruker). After 6 h of fasting, mice were sacrificed, and tissue samples were obtained.

[3] = in vitro; settings: human
[4] = DIO mice, 5mpk, individual animals, 5 mg/kg
[5] = DIO mice, 10mpk, individual animals, 10 mg/kg

Which results are given for `Cc1nc2n(c(=O)c1CCN1CCC(=C3c4ccc(Cl)cc4CCc4cccnc43)CC1)CCCC2O` (stereo not drawn) [Compound 11c]?
remaining at 3 h, 10 μM [1]: 75%; Tissue Weight Kidney ([2]; DIO mice, 5mpk, group mean): 0.17 g; Tissue Weight Liver ([2]; DIO mice, 5mpk, group mean): 1.34 g; Tissue Weight Pancreas ([2]; DIO mice, 5mpk, group mean): 0.39 g; Tissue Weight eWAT ([2]; DIO mice, 5mpk, group mean): 1.01 g; Tissue Weight iWAT ([2]; DIO mice, 5mpk, group mean): 1.37 g; Tissue Weight Kidney [2, 4]: 0.166 g and 0.156 g and 0.168 g and 0.162 g and 0.198 g and 0.195 g and 0.164 g; Tissue Weight Liver [2, 4]: 1.353 g and 1.128 g and 1.239 g and 1.293 g and 1.762 g and 1.451 g; Tissue Weight Pancreas [2, 4]: 0.398 g and 0.353 g and 0.255 g and 0.338 g and 0.634 g and 0.394 g and 0.387 g; Tissue Weight eWAT [2, 4]: 1.284 g and 1.045 g and 0.952 g and 0.74 g and 0.897 g and 0.939 g and 1.199 g; Tissue Weight iWAT [2, 4]: 1.826 g and 1.295 g and 1.198 g and 1.045 g and 1.186 g and 1.418 g and 1.644 g; Tissue Weight Kidney ([2]; DIO mice, 10mpk, group mean): 0.18 g; Tissue Weight Liver ([2]; DIO mice, 10mpk, group mean): 1.25 g; Tissue Weight Pancreas ([2]; DIO mice, 10mpk, group mean): 0.36 g; Tissue Weight eWAT ([2]; DIO mice, 10mpk, group mean): 0.57 g; Tissue Weight iWAT ([2]; DIO mice, 10mpk, group mean): 1.15 g; Tissue Weight Kidney [2, 5]: 0.183 g and 0.162 g and 0.142 g and 0.267 g and 0.16 g; Tissue Weight Liver [2, 5]: 1.17 g and 1.368 g and 1.031 g and 1.332 g and 1.38 g and 1.246 g; Tissue Weight Pancreas [2, 5]: 0.302 g and 0.381 g and 0.318 g and 0.442 g and 0.387 g and 0.34 g; Tissue Weight eWAT [2, 5]: 0.449 g and 0.747 g and 0.512 g and 0.764 g and 0.418 g; Tissue Weight iWAT [2, 5]: 0.774 g and 1.585 g and 1.202 g and 1.593 g and 1.007 g and 0.712 g; Tissue weight of inguinal white adipose tissue (iWAT) ([2]; DIO mice, vs vehicle): significantly decreased; Tissue weight of liver ([2]; DIO mice, vs vehicle): significantly decreased; Predicted (LS) mean diff. (Vehicle vs. 11c), Tissue Weight ([2]; Kidney, 5mpk): 0.01612; Significant? (Vehicle vs. 11c), Tissue Weight ([2]; Kidney, 5mpk): No; Predicted (LS) mean 2 (11c group), Tissue Weight ([2]; Kidney, 5mpk): 0.1727; Predicted (LS) mean diff. (Vehicle vs. 11c), Tissue Weight ([2]; Kidney, 10mpk): 0.006; Significant? (Vehicle vs. 11c), Tissue Weight ([2]; Kidney, 10mpk): No; Predicted (LS) mean 2 (11c group), Tissue Weight ([2]; Kidney, 10mpk): 0.1828; Predicted (LS) mean diff. (Vehicle vs. 11c), Tissue Weight ([2]; Liver, 5mpk): 0.2072; Significant? (Vehicle vs. 11c), Tissue Weight ([2]; Liver, 5mpk): No; Predicted (LS) mean 2 (11c group), Tissue Weight ([2]; Liver, 5mpk): 1.336; Predicted (LS) mean diff. (Vehicle vs. 11c), Tissue Weight ([2]; Liver, 10mpk): 0.289; Significant? (Vehicle vs. 11c), Tissue Weight ([2]; Liver, 10mpk): Yes; Predicted (LS) mean 2 (11c group), Tissue Weight ([2]; Liver, 10mpk): 1.255; Predicted (LS) mean diff. (Vehicle vs. 11c), Tissue Weight ([2]; Pancreas, 5mpk): 0.1064; Significant? (Vehicle vs. 11c), Tissue Weight ([2]; Pancreas, 5mpk): No; Predicted (LS) mean 2 (11c group), Tissue Weight ([2]; Pancreas, 5mpk): 0.3941; Predicted (LS) mean diff. (Vehicle vs. 11c), Tissue Weight ([2]; Pancreas, 10mpk): 0.1388; Significant? (Vehicle vs. 11c), Tissue Weight ([2]; Pancreas, 10mpk): No; Predicted (LS) mean 2 (11c group), Tissue Weight ([2]; Pancreas, 10mpk): 0.3617; Predicted (LS) mean diff. (Vehicle vs. 11c), Tissue Weight ([2]; eWAT, 5mpk): -0.00381; Significant? (Vehicle vs. 11c), Tissue Weight ([2]; eWAT, 5mpk): No; Predicted (LS) mean 2 (11c group), Tissue Weight ([2]; eWAT, 5mpk): 1.373; Predicted (LS) mean diff. (Vehicle vs. 11c), Tissue Weight ([2]; eWAT, 10mpk): 0.2238; Significant? (Vehicle vs. 11c), Tissue Weight ([2]; eWAT, 10mpk): No; Predicted (LS) mean 2 (11c group), Tissue Weight ([2]; eWAT, 10mpk): 1.146; Predicted (LS) mean diff. (Vehicle vs. 11c), Tissue Weight ([2]; iWAT, 5mpk): 0.08033; Significant? (Vehicle vs. 11c), Tissue Weight ([2]; iWAT, 5mpk): No; Predicted (LS) mean 2 (11c group), Tissue Weight ([2]; iWAT, 5mpk): 1.008; Predicted (LS) mean diff. (Vehicle vs. 11c), Tissue Weight ([2]; iWAT, 10mpk): 0.5213; Significant? (Vehicle vs. 11c), Tissue Weight ([2]; iWAT, 10mpk): Yes; Predicted (LS) mean 2 (11c group), Tissue Weight ([2]; iWAT, 10mpk): 0.567; IC50 [3]: > 100 µM
